{
  "source": "patent US5928868A",
  "about": "“Three hybrid screening assay” (Massachusetts Institute of Technology, priority 1997, dated 1999)",
  "key": {"[1]": {"target": "transcriptional activator-FKBP12 and Lex A DNA Binding Domain-Hormone Binding Domain of the Rat Glucocorticoid Receptor (UniProt P06536+P62942, C656G/F620S)", "sequence (P62942 2-108)": "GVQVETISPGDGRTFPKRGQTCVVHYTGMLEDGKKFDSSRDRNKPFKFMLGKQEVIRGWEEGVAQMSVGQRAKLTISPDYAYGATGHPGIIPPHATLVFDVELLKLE", "sequence (P06536 497-795 F620S/C656G)": "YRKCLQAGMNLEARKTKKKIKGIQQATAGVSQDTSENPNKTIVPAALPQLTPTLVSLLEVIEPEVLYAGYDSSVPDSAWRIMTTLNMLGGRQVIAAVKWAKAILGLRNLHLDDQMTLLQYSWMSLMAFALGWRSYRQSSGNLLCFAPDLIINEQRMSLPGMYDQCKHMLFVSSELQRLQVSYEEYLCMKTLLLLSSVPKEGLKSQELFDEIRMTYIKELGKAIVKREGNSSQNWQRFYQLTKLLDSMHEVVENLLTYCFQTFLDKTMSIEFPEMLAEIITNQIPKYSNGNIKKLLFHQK", "assay": "Yeast three hybrid screen, Lex A system (EGY48; lacZ and leu 2 reporters)", "assay_type": "cell-based, Saccharomyces cerevisiae (EGY 48)", "settings": "2% galactose", "excerpt": "A first vector containing the cDNA fragment encoding FKBP 12-transcriptional module was formed as follows. The cDNA encoding FKBP 12 was originally obtained from a human cDNA library prepared according to well known techniques (Current Protocols in Molecular Biology). The cDNA encoding the FKBP12 was amplified by PCR and subcloned into the EcoRI and XhoI sites of the pJG4-5 vector where the pJG4-5 vector already contains the transcriptional activator module. (Current Protocols in Molecular Biology). The resulting vector is called pJGFKBP.\nA second vector encoding the hormone binding domain of rat glucocorticoid receptor (FIG. 4) and the Lex A binding protein was made as follows: A clone containing the full length rat glucocorticoid receptor with the C656G mutation was obtained according to Chakrabati et al. Journal of Biological Chemistry, (1991) vol 266, pp22075-22078. A fragment encoding amino acid residues 497-795 of the protein with the F620S mutation was generated by a standard two-step PCR reaction routinely used for the creation of point mutations. This fragment was flanked by restriction sites for MfeI and XhoI, and was subcloned into the EcoRI and XhoI sites of the pEG202 vector (Current Protocols in Molecular Biology) where the pEG202 vector contains the sequence which encodes for a protein which binds the bacterial Lex A operator. The resulting hybrid construct, designated pEGHDP encodes the second hybrid protein in the assay.\nA third vector identified as pSH18-34 and containing the lacZ reporter gene downstream of a number of Lex A operators was made following standard techniques. (Current Protocols in Molecular Biology).\nSaccharomyces cerevisiae (EGY 48) [Current Protocols on Molecular Biology], was transformed with the three vectors described above using standard lithium acetate transformation procedures. Positive transformants were selected by plating cells on complete minimal media yeast dropout plates containing 2% glucose, and lacking histidine, tryptophan and uracil. The transformed EGY48 yeast were then screened as described below.\n(FIG. 6). […] This experiment was also performed on similar plates which were also leu^-. The leu 2 gene is used in EGY48 as a second reporter gene. Only yeast that grow in the absence of leucine contain a trimeric complex. These yeast grew well, with isolated colonies clearly visible at two days. Two control experiments were conducted by plating the transformed EGY48 strain onto complete minimal media Ura^-, His^-, Trp^- yeast dropout plates as in the aforementioned cases except the plates contained 2% glucose instead of 2% galactose. In the absence of galactose, the hybrid transcriptional activator-FKBP12 protein was not expressed since the gene encoding it is under the Gal1 promoter. […]"}, "[2]": {"tested_on": "Jurkat cDNA library subcloned into pJG4-5", "settings": "1 μM dexamethasone-FK506; growth inhibited by 10 μM FK506", "protocol": "The yeast strain: EGY48 ura3 trp1 his3 Lex A operator-LEU 2; was transformed with pEGHDP and PSH18-34 and plated onto synthetic complete (SC) medium (His^-, Ura^-). The resultant EGY48 harboring pEGHBD and pSH18-34 was transformed with a Jurkat cDNA library subcloned into pJG4-5. […] Colonies were collected between days four and ten. All colonies were plated onto SC medium (His^-, Ura^-, Trp^-, Leu^-) containing galactose."}, "[3]": {"tested_on": "glucocorticoid receptor", "settings": "cited from earlier work"}, "[4]": {"tested_on": "FK506 binding proteins (FKBP)", "settings": "cited from earlier work"}, "[5]": {"target": "T1, Gal 4 activation domain-human FKBP12 and Gal4 DNA binding domain-hormone binding domain of rat glucocorticoid receptor (UniProt P06536+P62942, C656G/F620S)", "T1 sequence (P62942 2-108)": "as the sequence (P62942 2-108) above", "T1 sequence (P06536 497-795 F620S/C656G)": "as the sequence (P06536 497-795 F620S/C656G) above", "settings": "10 μM FK506 with 1 μM dexamethasone-FK506, 30 mM 3-aminotriazole, three days", "procedure": "A three-hybrid assay using a second Gal4 DNA binding domain and activation domain as described by Fields et al. (U.S. Pat. No. 5,468,614) and by Durfee et al. (1993) Genes and Development vol 7, pg 555-569 was evaluated. The hormone binding domain of rat glucocorticoid receptor (residues 497-795) containing either a single or double mutations (C656G and F620S) was PCR amplified using primers tagged with restriction sites and subcloned into the vector pASII to encode a fusion protein between the Gal4 DNA binding domain and the hormone binding domain of rat glucocorticoid receptor to give a plasmid pASHBD. The coding sequence of human FKBP12 was PCR amplified and subcloned into the vector pACTII to include a fusion protein between Gal 4 activation domain and human FKBP12. The resultant vector is called pACTFKBP. The vectors pASHBD and pACTFKBP were transformed into the yeast strain Y190 using lithium acetate method and the transformed yeast were selected on SC (Leu^-, Trp^-)."}, "[6]": {"target": "T1, Gal 4 activation domain-human FKBP12 and Gal4 DNA binding domain-hormone binding domain of rat glucocorticoid receptor", "assay_type": "cell-based, yeast strain Y190", "settings": "FK506 1 to 10 μM with 1 μM dexamethasone-FK506, 30° C., 12-16 hours", "protocol": "The above yeast system has both a His- biosynthetic gene and a LacZ reporter gene as reporters for detection of three-hybrid interactions. We performed liquid β-galactosidase assay as follows. […] The culture were shaken vigorously at 30° C. for 12-16 hours. The yeast were harvested and the amount of β-galactosidase activity were quantified using established procedure (Current Protocol in Molecular Biology, Chapt. 13). […] This system is applied for screening a cDNA library to identify FKBPs that binds to FK506. The screening procedures are identical to those employed in Example 1."}},
  "data": [
    {"compound": "dexamethasone-FK506", "values": [
      {"measurement": "reporter gene activation (Lac Z, blue color on X-Gal)", "setting": "[1]; 1 μM hybrid ligand, Ura-, His-, Trp- plates with X-Gal", "result": "the yeast were blue at three days"},
      {"measurement": "time at which light blue color signifying reporter gene activation began to arise", "setting": "[1]; 1 μM hybrid ligand, X-Gal plates", "result": "approximately 36 hours"},
      {"measurement": "growth in the absence of leucine (leu 2 reporter gene)", "setting": "[1]; 1 μM hybrid ligand, leu- plates", "result": "grew well"},
      {"measurement": "protein encoded by cDNA clones isolated with the hybrid ligand", "setting": "[2]", "result": "found to encode human FKBP12"}
    ]},
    {"compound": "C[C@@H]1C[C@H]2[C@@H]3CCC4=CC(=O)C=C[C@]4(C)[C@@]3(F)[C@@H](O)C[C@]2(C)[C@@]1(O)C(=O)CO", "note": "[dexamethasone]", "values": [
      {"measurement": "affinity for the glucocorticoid receptor", "setting": "[3]", "result": "high affinity"}
    ]},
    {"compound": "C=CC[C@@H]1/C=C(\\C)C[C@H](C)C[C@H](OC)[C@H]2O[C@@](O)(C(=O)C(=O)N3CCCC[C@H]3C(=O)O[C@H](/C(C)=C/[C@@H]3CC[C@@H](O)[C@H](OC)C3)[C@H](C)[C@@H](O)CC1=O)[C@H](C)C[C@@H]2OC", "note": "[FK506]", "values": [
      {"measurement": "binding affinity to FKBPs when linked through the effector domain", "setting": "[4]; FK506 linked through the effector domain", "result": "low nanomolar binding affinity"},
      {"measurement": "binding affinities for FKBPs", "setting": "[4]; free FK506", "result": "in the nanomolar range"},
      {"measurement": "competitive inhibition of trimeric complex formation / Lac Z activation (yeast color)", "setting": "[1]; 10 μM FK506 with 1 μM dexamethasone-FK506 hybrid ligand", "result": "all of the yeast remained white"},
      {"measurement": "yeast colonies on selective plates in competition with hybrid ligand", "setting": "[5]", "result": "absent"},
      {"measurement": "β-galactosidase activity in competition with hybrid ligand", "setting": "[6]", "result": "decrease in a FK506 dose-dependent manner"}
    ]}
  ]
}
